Measured values from patent US20240197603A1, “METHODS AND COMPOSITIONS FOR TREATING HYPERPIGMENTATION DISORDERS” (INSERM (INSTITUT NATIONAL DE LA SANTÉ ET DE LA RECHERCHE …, priority 2021, published 2024).

Tests used:
B16F10 cells [1] = assay: Melanin content in B16F10 cells; assay type: cell-based, Mouse
Experimental: (§1) Mouse B16F10 and Human 501Mel melanoma cells were cultured in Dulbecco's modified Eagle's medium (DMEM) supplemented with 7% Fetal Bovine Serum and 1% Penicillin/Streptomycin. Human MNT1 melanoma cells were cultured as described (Yasumoto et al., 2004). Normal Human Melanocytes were isolated from foreskin obtained after phimosis surgery. Patient consent was not required because French laws consider tissue left over from postectomy as discarded material. Melanocytes were cultured in MCDB medium as described (Bonet et al., 2017). Cells were tested every 4 weeks for […] presence. […] Cells were transfected with 50 nM siRNAs to SLC7A5, MITF or control siRNAs (ON-TARGETplus, Dharmacon) using HiPerfect transfection reagent (Qiagen, France). When indicated, Forskolin (20 μM) and IBMX (100 μM) were added to induce pigmentation on B16F10 cells. 48 hours later, medium was removed, and cells were used for western blot, quantitative PCR, melanin content analyses, immunofluorescence or brightfield imaging. Cells were detached with 0.05% Trypsin-EDTA solution (Thermo Scientific, France) and solubilized in NaOH 0.5N. Optical density was measured at 405 nm using melanin standard as a reference. Melanin content was normalized to the protein content.

tyrosinase [2] = biological target: T1, tyrosinase (Mus musculus, UniProt P11344); assay: DOPA oxidase assay, agent added directly in cell lysates; assay type: biochemical; parameters: when added directly in cell lysates during the DOPA oxidase assay; endogenous in cells; B16F10 by context); details: during the DOPA oxidase assay
T1 sequence (P11344 19-533): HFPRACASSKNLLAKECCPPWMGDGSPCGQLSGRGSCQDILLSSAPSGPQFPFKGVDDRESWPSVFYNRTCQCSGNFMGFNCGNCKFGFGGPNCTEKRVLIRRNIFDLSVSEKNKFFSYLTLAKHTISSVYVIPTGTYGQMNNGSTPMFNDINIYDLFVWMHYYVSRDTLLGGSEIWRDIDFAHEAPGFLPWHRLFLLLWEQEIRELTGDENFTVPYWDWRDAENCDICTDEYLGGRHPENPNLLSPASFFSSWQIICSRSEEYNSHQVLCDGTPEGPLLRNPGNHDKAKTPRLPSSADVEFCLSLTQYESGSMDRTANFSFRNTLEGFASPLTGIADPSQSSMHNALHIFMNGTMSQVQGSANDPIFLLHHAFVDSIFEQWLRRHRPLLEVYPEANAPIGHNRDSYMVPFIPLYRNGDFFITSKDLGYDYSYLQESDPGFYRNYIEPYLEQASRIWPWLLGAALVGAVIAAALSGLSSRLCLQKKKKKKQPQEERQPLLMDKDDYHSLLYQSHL
Experimental: (§2) Proteins were resuspended in 0.1M Sodium Phosphate pH 6.8, supplemented with 5 mM L-DOPA. After incubation for 1 hour at 37° C., optical density was read at 475 nm.

B16F10 cells [3] = assay: Western blot of protein expression in B16F10 cells; assay type: cell-based, Mouse
Experimental: Proteins were analyzed by SDS-PAGE and transferred on PVDF membranes (Sigma, France). The antibodies used were as follow: beta-actin (ab8226), MITF (ab12039) and Tyrosinase (ab738) from Abcam, Rab27a (#69295) and HSP90 (#4874) from Cell Signaling Technologies, SLC7A5 (sc-374232) and TYRPI (sc-166857) from Santa Cruz. Signals were detected with horseradish peroxidase conjugated secondary antibodies using ECL detection kit and quantified by digital imaging (Fuji LAS4000).

[4] = system: MNT1 human melanoma cells; assay: Melanin production in MNT1 human melanoma cells; assay type: cell-based
Experimental: as §1, with “were” for “were transfected with 50 nM siRNAs to SLC7A5, MITF or control siRNAs (ON-TARGETplus, Dharmacon) using HiPerfect transfection reagent (Qiagen, France). When indicated, Forskolin (20 μM) and IBMX (100 μM) were added to induce pigmentation on B16F10 cells. 48 hours later, medium was removed, and cells were used for western blot, quantitative PCR, melanin content analyses, immunofluorescence or brightfield imaging. Cells were”

[5] = system: normal human melanocytes (NHM); assay: Melanin production in normal human melanocytes; assay type: cell-based; details: pigmented normal human melanocytes
Experimental: as §1, with “were” for “were transfected with 50 nM siRNAs to SLC7A5, MITF or control siRNAs (ON-TARGETplus, Dharmacon) using HiPerfect transfection reagent (Qiagen, France). When indicated, Forskolin (20 μM) and IBMX (100 μM) were added to induce pigmentation on B16F10 cells. 48 hours later, medium was removed, and cells were used for western blot, quantitative PCR, melanin content analyses, immunofluorescence or brightfield imaging. Cells were”

tyrosinase [6] = biological target: T1, tyrosinase; assay: Tyrosinase (L-DOPA) activity after treatment of B16F10 cells; assay type: cell-based; parameters: endogenous in cells; host or cells: B16F10 melanoma cells; details: B16F10 cells treated at 10 mM
Experimental: as §2

[7] = system: Phototype VI Reconstructed Human Pigmented Epidermis
Experimental: Phototype VI Reconstructed Human Pigmented Epidermis (Sterlab, France) were treated with BCH or vehicle for 7 days. 10 μm cryosections were used to visualize melanin using Fontana-Masson stain kit (Interchim, France). Images were taken with a Nikon microscope and a 20× lens. Melanin content was quantified after solubilization of epidermis in Solvable® solution (PerkinElmer, France), and melanin content was quantified as described above.

B16F10 cells [8] = assay: Cell viability / proliferation of B16F10 cells (CellTiter Aqueous One); assay type: cell-based, Mouse
Experimental: Mouse B16F10 and Human 501Mel melanoma cells were cultured in Dulbecco's modified Eagle's medium (DMEM) supplemented with 7% Fetal Bovine Serum and 1% Penicillin/Streptomycin. Human MNT1 melanoma cells were cultured as described (Yasumoto et al., 2004). Normal Human Melanocytes were isolated from foreskin obtained after phimosis surgery. Patient consent was not required because French laws consider tissue left over from postectomy as discarded material. Melanocytes were cultured in MCDB medium as described (Bonet et al., 2017). Cells were tested every 4 weeks for […] presence. […] Cell viability was evaluated using CellTiter Aqueous One Solution Cell Proliferation Assay (Promega, France) as recommended by the supplier.

| tyrosinase activity, added directly in cell lysates (tyrosinase [2]) | tyrosinase activity after treatment of cells (tyrosinase [6]) | Structure (SMILES) | inhibition of melanin production (B16F10 cells [1]; B16F10 cells, BCH at 5 mM) [%] | inhibition of melanin production (B16F10 cells [1]; B16F10 cells, BCH at 10 mM) [%] | Slc7a5 expression (B16F10 cells [3]; Western blot, B16F10 cells) | Tyrosinase or Rab27a expression (B16F10 cells [3]; Western blot, B16F10 cells) | Tyrp1 expression (B16F10 cells [3]; Western blot, B16F10 cells) | conversion of LC3-I to LC3-II (autophagy) (B16F10 cells [3]; at 5 and 10 mM) | melanin production [4] | melanin production [5] | epidermis structure and keratinisation [7] | melanin content of reconstructed epidermis ([7]; treated for 7 days) | pigmentation of reconstructed epidermis (macroscopic, bright field images) ([7]; treated for 7 days) | pigmented melanocytes in epidermis sections (Fontana Masson staining) ([7]; treated for 7 days) | cell proliferation (B16F10 cells [8]; JPH203 at 10 and 50 μM) | inhibition of pigmentation (melanin content) (B16F10 cells [1]; B16F10 cells, JPH203 at 10 and 50 μM, FIG. 2) | cell proliferation (B16F10 cells [8]; doses of Kojic acid that inhibit melanogenesis) | inhibition at 1000 µM (B16F10 cells [1]; Mus musculus, B16-F10) [%] |
| --- | --- | --- | --- | --- | --- | --- | --- | --- | --- | --- | --- | --- | --- | --- | --- | --- | --- | --- |
| does not inhibit tyrosinase activity | did not | NC1(C(=O)O)CC2CCC1C2 (stereo not shown) [BCH] | 25 | 60 | did not affect Slc7a5 expression | not affected consistently | dose-dependent increase | induced a conversion of LC3-I to LC3-II | significantly decreased melanin production | significantly decreased melanin production | without affecting epidermis structure or keratinisation | statistically significant decrease in melanin content | inhibited pigmentation | absence of pigmented melanocytes |  |  |  |  |
|  |  | Nc1cc(COc2c(Cl)cc(C[C@H](N)C(=O)O)cc2Cl)c2oc(-c3ccccc3)nc2c1 [JPH203, O-[(5-amino-2-phenyl-7-benzoxazolyl)methyl]-3,5-dichloro-L-tyrosine] |  |  |  |  |  |  |  |  |  |  | strong inhibition of pigmentation |  | did not inhibit cell proliferation | efficiently inhibited pigmentation |  |  |
|  |  | O=c1cc(CO)occ1O [Kojic Acid] |  |  |  |  |  |  |  |  |  |  |  |  |  |  | did not affect cell proliferation | 60 |
